The values below come from US20250304645A1, “Prodrugs of GLP-1 Polypeptide and Uses Thereof” (Novo Nordisk A/S, priority 2022, published 2025).

This data set in a line: Prodrug to drug conversion half-life in vitro in PBS at pH 7.4 and 37° C. (UPLC-UV-MS). It counts as physicochemical. As to conditions: prodrug to parent drug conversion, PBS pH 7.4, 37° C., first order T½. The method, then:
The assay was performed to investigate the conversion half-life of prodrug to drug of the prodrugs of the invention.
Peptide stock solutions were prepared by dissolving freeze-dried powder in PBS buffer to a target of 200 μM. PBS-buffer was Dulbecco's Phosphate Buffered Saline without CaCl2 and MgCl2, gibco 14190-094 adjusted to pH=7.4. The pH of the peptide stock solutions was adjusted to 7.4 with 0.02 M HCl or 0.02M NaOH. Samples were filled in Agilent HPLC vials with fixed insert. Vials were capped to prevent evaporation. The HPLC vials were incubated at 37° C. and samples were withdrawn at different time points over a period of 2 weeks, flash frozen at −80° C., and stored at −20° C. until analysis.
Sample analysis was carried out using UPLC coupled to UV detection at 215 nm and MS (UPLC-UV-MS). One μl of sample was injected on to a Waters Acquity UPLC with a flow-through-needle injection system and on to a Waters Acquity CSH C18 column (1*150 mm), with a particle size of 1.7 μm and held at 55° C. A flow-rate of 100 μl/min was delivered with a Binary solvent manager pump having 0.1% formic acid in water as solvent A and 0.1% formic acid in acetonitrile as solvent B. Gradient elution was carried out using 15-32% B from 0 to 4 min followed by 32 to 48% B from 4 to 54 min. […]

As usually defined, the half-life is the time needed for the level to fall by half in the phase considered. As for `CC[C@H](C)[C@H](NC(=O)[C@H](Cc1ccccc1)NC(=O)[C@H](CCC(=O)O)NC(=O)[C@H](CCCCNC(=O)COCCOCCNC(=O)COCCOCCNC(=O)CC[C@H](NC(=O)CCCCCCCCCCCCCCCCC(=O)O)C(=O)O)NC(=O)[C@H](C)NC(=O)[C@H](C)NC(=O)[C@H](CCC(N)=O)NC(=O)CNC(=O)[C@H](CCC(=O)O)NC(=O)[C@H](CC(C)C)NC(=O)[C@H](Cc1ccc(O)cc1)NC(=O)[C@H](CO)NC(=O)[C@H](CO)NC(=O)[C@@H](NC(=O)[C@H](CC(=O)O)NC(=O)[C@H](CO)NC(=O)[C@@H](NC(=O)[C@H](Cc1ccccc1)NC(=O)[C@@H](NC(=O)CNC(=O)[C@H](CCC(=O)O)NC(=O)C(C)(C)NC(=O)[C@H](Cc1c[nH]cn1)NC(=O)[C@@H]1CSCN1C(=O)[C@@H](N)CCCCNC(=O)COCCOCCNC(=O)COCCOCCNC(=O)CC[C@H](NC(=O)CCCCCCCCCOc1cccc(C(=O)O)c1)C(=O)O)[C@@H](C)O)[C@@H](C)O)C(C)C)C(=O)N[C@@H](C)C(=O)N[C@@H](Cc1c[nH]c2ccccc12)C(=O)N[C@@H](CC(C)C)C(=O)N[C@H](C(=O)N[C@@H](CCCNC(=N)N)C(=O)NCC(=O)N[C@@H](CCCNC(=N)N)C(=O)NCC(=O)O)C(C)C` [Chem. 8, N{ε26}-[2-[2-[2-[[2-[2-[2-[[(4S)-4-carboxy-4-(17-carboxyheptadeca-noylamino)butanoyl]amino]ethoxy]ethoxy]acetyl]amino]ethoxy]ethoxy]acetyl]-N{ε}-[2-[2-[2-[[2-[2-[2-[[(4S)-4-carboxy-4-[10-(3-carboxyphenoxy)decanoylamino]butanoyl]amino]ethoxy]ethoxy]acetyl]amino]ethoxy]ethoxy]acetyl]Lys-Thz-[Aib8,Arg34]-GLP-1-(7-37)-peptide], the half-life (buffer) was 175 h.

Turning to “N{ε26}-[2-[2-[2-[[2-[2-[2-[[(4S)-4-carboxy-4-(17-carboxyheptadeca-noylamino)butanoyl]amino]ethoxy]ethoxy]acetyl]amino]ethoxy]ethoxy]acetyl]-N{ε}-[(2S)-2-[[(4S)-4-carboxy-4-(17-carboxyheptadecanoylamino)butanoyl]amino]-3-hydroxypropanoyl]Lys-Thz-[Aib8,Arg34]-GLP-1-(7-37)-peptide [Chem. 18]”, the Conversion half-life came out at 168 h.
